Key:
[1] = Freeze-thaw stability of LPV in rat plasma; format: in vitro ADME, Wistar rat; conditions: rat plasma QC samples, end of three freeze-thaw cycles, frozen at −20 °C
Method: Total of four sets were prepared in triplicates and one set of the prepared concentrations was analyzed on the day of preparation (no freeze-thaw cycle) and the remaining three sets were frozen at −20 °C for 24 h. Frozen samples were thawed by keeping the sealed tubes at room temperature for at least 1 h. One set in triplicate was analyzed and the remaining two sets were kept at −20 °C for freezing and were analyzed after two and three freeze-thaw cycles.

[2] = Pharmacokinetic study after intravenous bolus administration of LPV in rats; format: in vivo; conditions: male Wistar rats, 5 mg kg^−1, n = 6, plasma
Method: Formulation was administered through tail vein in male Wistar rats (n = 6), weighing 180 to 220 g, at a dose of 5 mg kg^−1 [35]. Blood samples were drawn from retro-orbital plexus of Wistar rats at 0.083, 0.167, 0.25, 0.5, 1, 2, 3, 4, 6, 8, 12 and 24 h post dose in microfuge tube pretreated with sodium citrate solution (3.8% w/v). A baseline blank plasma sample was drawn from each animal before drug administration. All samples were processed according to the procedure described earlier and analyzed using the validated HPLC method.

[3] = Post extraction stability of processed samples of LPV in rat plasma; format: physicochemical, Wistar rat; conditions: processed rat plasma QC samples kept in auto sampler rack, 24 h
Method: Processed samples were kept in the sample rack of auto sampler and samples were analyzed in triplicates every 6 h for 24 h period on the day of preparation. The percentage deviation from the mean concentrations observed at zero time was calculated.

**Q.** For Cc1cccc(C)c1OCC(=O)N[C@@H](Cc1ccccc1)[C@@H](O)C[C@H](Cc1ccccc1)NC(=O)[C@H](C(C)C)N1CCCNC1=O [LPV, (2S)-N-[(1S,3S,4S)-1-benzyl-4-{[(2,6-dimethyl-phenoxy)acetyl]amino}-3-hydroxy-5-phenylpentyl]-3-methyl-2-(2-oxotetrahydropyrimidin-1(2H)-yl)butanamide], which “deviation from the zero time concentration (freeze-thaw stability)” value [1] is on record?
**A.** less than 8.0%

**Q.** And the “area under the first-moment curve (AUMC)” value [2]?
**A.** 4403.07 ± 171.33 h^2 ng mL^−1

**Q.** What about the AUC ([2]; rat, read-out: area under the curve (AUC)) of the same molecule?
**A.** 3850 ± 264 ng·h/mL

**Q.** And the C0 ([2]; rat, read-out: concentration at time zero (Co))?
**A.** 3170 ± 290 ng/mL

**Q.** And the half-life ([2]; rat, read-out: elimination half-life (t½) (converted))?
**A.** 49.2 ± 1.8 min

**Q.** And the MRT ([2]; rat, read-out: mean retention time (MRT))?
**A.** 69 ± 3 min

**Q.** What about the clearance ([2]; rat, read-out: total plasma clearance (CLs) (converted)) of the same molecule?
**A.** 22.4 mL/min/kg

**Q.** What about the Vd ([2]; rat, read-out: volume of distribution (Vss)) of the same molecule?
**A.** 1.59 ± 0.146 L/kg

**Q.** And the “maximum deviation from the zero time concentration (post extraction stability)” value [3]?
**A.** less than 2.0%
